Data taken from patent US10072017B2, “Compounds and methods for the treatment of cystic fibrosis” (Flatley Discovery Lab, LLC, priority 2015, dated 2018).

Target: T1, CFTR (Homo sapiens, UniProt P13569, DEL508-508)
T1 construct: Primary CF airway epithelial cells were obtained from the UNC Cystic Fibrosis Tissue Procurement and Cell Culture Core; host or cells: primary CF airway epithelial cells
Experiment: Equivalent current assay in Primary CF airway epithelial cells (NAUC)
Assay type: cell-based
Details: 24 h, normalized to VX809 (3 μM) positive control; for Nauc @ 3 μM: 3 μM test compound; for Nauc @ 10 μM: 10 μM test compound
Description: Primary CF airway epithelial cells were obtained from the UNC Cystic Fibrosis Tissue Procurement and Cell Culture Core. The cells are grown at 37° C. in a Heracell 150i incubator using growth media (BEGM, Fischer). Cells were then transferred to differentiation media (ALI, UNC) for a minimum of 4 weeks on coated Costar snapwells. Two days before the Ussing assay the mucus on the apical surface of the cells was aspirated after incubating with 200 μL of differentiation Media for at least thirty (30) minutes. One day before the Ussing assay test compounds were added to the basolateral surface of the cells at various test concentrations dissolved in DMSO. Duplicate wells were prepared giving a n=3 or n=4 protocol.
Cells were treated for 24 hours with various combinations and concentrations of the test articles, reference standard (3 μM VX809, positive control). Compounds stock solutions were prepared in DMSO and diluted 1/1000 into ALI media to their final assay concentration. Cells were treated with combination solutions (2 mL of each dilution) and incubated at 37° C. for 24 h.
For the equivalent current assay, cells on four Transwell (24-well) plates were treated. Each Transwell plate was filled with 200 μl of HBS on the apical surface and 2 ml on the basolateral surface. Plates were placed horizontally in a heated mount at 37° C., and equilibrated for several minutes. Resting current was measured for 15 min and then blocked by the apical addition of 5 μM benzamil. After 20 min, 10 μM forskolin and 1 μM VX770 were added to both the apical and basolateral side to stimulate CFTR. An increase in chloride current is seen as an upward deflection of the trace. After another 30 min, CFTR-172 (a CFTR inhibitor, 20 μM) and/or bumetanide (20 uM) was added to block CFTR mediated chloride current.
The raw data, current vs. time for the Ussing chamber (sampling interval: 10 s) and voltage vs. time and resistance vs. time for the equivalent current assay (sampling interval: 5 minutes) were transferred to Excel (Microsoft Office Professional, version 14.0.7106.5003) for analysis. CFTR specific current was measured as the average amplitude of the increase in current elicited upon addition forskolin and ending upon addition of the CFTR channel specific blocker CFTR-172. This average is equivalent to the sum of the average forskolin activated and the average VX770-potentiated currents. The average current measured in vehicle (0.1% DMSO) treated cells, Iv, was subtracted from the current for the test article, ITA, or from the corrector reference standard VX809 (3 uM ISTD. For replicate measurements, the average vehicle subtracted response for the test article, was normalized to the average vehicle subtracted inhibitor response of the reference corrector VX809 (3 μM). INSC=(ITA−IV)(ave)/(ISTD−IV)(ave) (Equation 1)
A second endpoint, for the equivalent current assay, evaluated was NAUC, the normalized area under the curve (AUC) measuring the response after addition of forskolin and VX770 to the time point right before the addition of the CFTR inhibitor. The AUC is effectively the average response multiplied by the duration of the response. The AUC of the test article, AUCTA was then corrected by subtracting the average vehicle response, AUCV,ave over the same time range, and normalized as for the inhibitor-sensitive current to the difference of the corrector reference standard VX809 (3 μM VX809r,ave and the vehicle response: NAUCTA=[AUCTA−AUCV,ave]/[AUCVx809r,ave−AUCV,ave] (Equation 2).
The normalized value for DMSO is 0.0 and for VX-809 alone is 1.0. Combinations of compounds with VX-809 that give normalized values greater than 1.0 show activity in the combination assay. A value of 2 means the test compound doubles the effect to VX-809 alone.
Experiments were run with a minimum of n=4 replicates per concentration. […]

T1 sequence (P13569 with tags, fused parts or gaps DEL508-508): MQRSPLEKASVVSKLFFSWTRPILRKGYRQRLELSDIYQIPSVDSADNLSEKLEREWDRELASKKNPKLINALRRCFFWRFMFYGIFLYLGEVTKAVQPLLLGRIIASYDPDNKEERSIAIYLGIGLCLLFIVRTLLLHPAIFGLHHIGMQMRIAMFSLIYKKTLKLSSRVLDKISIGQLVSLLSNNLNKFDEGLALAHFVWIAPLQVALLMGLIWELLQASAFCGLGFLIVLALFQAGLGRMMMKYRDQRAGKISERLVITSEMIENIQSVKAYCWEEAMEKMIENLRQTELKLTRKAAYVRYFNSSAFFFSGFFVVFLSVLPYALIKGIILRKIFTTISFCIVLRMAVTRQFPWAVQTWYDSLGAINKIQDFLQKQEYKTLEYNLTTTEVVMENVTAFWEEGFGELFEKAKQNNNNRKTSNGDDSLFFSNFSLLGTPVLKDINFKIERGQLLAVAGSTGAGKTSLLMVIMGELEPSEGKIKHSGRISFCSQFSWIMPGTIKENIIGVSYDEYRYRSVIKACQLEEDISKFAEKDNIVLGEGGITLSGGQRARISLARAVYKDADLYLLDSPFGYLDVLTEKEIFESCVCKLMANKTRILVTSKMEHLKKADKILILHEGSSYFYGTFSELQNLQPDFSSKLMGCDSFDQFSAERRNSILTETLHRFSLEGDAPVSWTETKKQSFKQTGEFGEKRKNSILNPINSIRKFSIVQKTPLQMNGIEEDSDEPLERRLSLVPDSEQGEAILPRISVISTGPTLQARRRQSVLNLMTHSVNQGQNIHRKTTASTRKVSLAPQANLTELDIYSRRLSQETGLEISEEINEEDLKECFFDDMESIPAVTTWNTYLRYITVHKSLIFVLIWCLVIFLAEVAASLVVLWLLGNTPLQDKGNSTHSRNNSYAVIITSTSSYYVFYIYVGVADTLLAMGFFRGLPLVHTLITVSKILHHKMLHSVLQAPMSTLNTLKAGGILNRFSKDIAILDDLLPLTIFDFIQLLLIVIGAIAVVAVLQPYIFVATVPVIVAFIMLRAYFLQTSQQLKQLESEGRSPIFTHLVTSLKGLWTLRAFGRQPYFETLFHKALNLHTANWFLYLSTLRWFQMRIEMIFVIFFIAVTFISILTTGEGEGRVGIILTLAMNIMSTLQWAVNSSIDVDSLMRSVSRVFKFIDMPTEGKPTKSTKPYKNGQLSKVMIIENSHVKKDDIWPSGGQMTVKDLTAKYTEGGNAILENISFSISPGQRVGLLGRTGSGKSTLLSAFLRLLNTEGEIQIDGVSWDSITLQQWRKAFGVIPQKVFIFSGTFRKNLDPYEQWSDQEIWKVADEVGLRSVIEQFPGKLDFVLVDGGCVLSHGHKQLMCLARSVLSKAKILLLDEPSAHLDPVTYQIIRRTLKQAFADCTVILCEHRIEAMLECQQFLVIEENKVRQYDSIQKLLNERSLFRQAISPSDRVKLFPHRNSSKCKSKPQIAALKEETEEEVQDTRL

| Structure (SMILES) | Nauc @ 3 μM | Nauc @ 10 μM |
| --- | --- | --- |
| O=C1C2C(Cc3cccc(Cl)c3)NC3(C(=O)Nc4c(Cl)cc(Cl)cc43)C2C(=O)N1c1cc(Cl)cc(Cl)c1 (centres unmarked) [Example 187] | +++ (NAUC “+++” refers to an observed NAUC >170% of positive control) | ++ (NAUC “++” refers to an observed NAUC 170-140% of positive control) |
| O=C1C2C3CC(C(F)F)CN3C3(C(=O)Nc4c(Cl)cc(Cl)cc43)C2C(=O)N1c1cc(F)cc(Cl)c1 (centres unmarked) [Example 133] | ++ (NAUC “++” refers to an observed NAUC 170-140% of positive control) | ++ (NAUC “++” refers to an observed NAUC 170-140% of positive control) |
| COc1c(Cl)cc(N2C(=O)C3C4CC(C)(C)CN4C4(C(=O)Nc5c(Cl)cc(Cl)cc54)C3C2=O)cc1Cl (single isomer, unassigned) [Example 141] | + (NAUC “+” refers to an observed NAUC <140% of positive control) | ++ (NAUC “++” refers to an observed NAUC 170-140% of positive control) |
| Cc1cc(CC2NC3(C(=O)Nc4c(Cl)cc(Cl)cc43)C3C(=O)N(c4cc(Cl)cc(Cl)c4)C(=O)C23)no1 (centres unmarked) [Example 237] | ++ (NAUC “++” refers to an observed NAUC 170-140% of positive control) | + (NAUC “+” refers to an observed NAUC <140% of positive control) |
| O=C1C2C3CC4(CC4)CN3C3(C(=O)Nc4c(Cl)cc(Cl)cc43)C2C(=O)N1c1cc(Cl)cc(Cl)n1 (single isomer, unassigned) [Example 219] | ++ (NAUC “++” refers to an observed NAUC 170-140% of positive control) | + (NAUC “+” refers to an observed NAUC <140% of positive control) |
| O=C1C2C3C[C@H](CF)CN3C3(C(=O)Nc4c(Cl)cc(Cl)cc43)C2C(=O)N1c1cc(Cl)cc(Cl)c1 (some centres unmarked) [Example 109] | ++ (NAUC “++” refers to an observed NAUC 170-140% of positive control) | ++ (NAUC “++” refers to an observed NAUC 170-140% of positive control) |
| O=C1C2C(Cc3ccccc3Cl)NC3(C(=O)Nc4c(Cl)cc(Cl)cc43)C2C(=O)N1c1cc(Cl)cc(Cl)c1 (centres unmarked) [Example 190] | +++ (NAUC “+++” refers to an observed NAUC >170% of positive control) | +++ (NAUC “+++” refers to an observed NAUC >170% of positive control) |
| COc1c(Cl)cc(N2C(=O)C3C4C[C@](C)(O)CN4C4(C(=O)Nc5c(Cl)cc(Cl)cc54)C3C2=O)cc1Cl (some centres unmarked) [Example 159] | +++ (NAUC “+++” refers to an observed NAUC >170% of positive control) | +++ (NAUC “+++” refers to an observed NAUC >170% of positive control) |
| C[C@]1(OCc2ccccc2)CC2C3C(=O)N(c4cc(Cl)cc(Cl)c4)C(=O)C3C3(C(=O)Nc4c(Cl)cc(Cl)cc43)N2C1 (single isomer, unassigned) [Example 239] | ++ (NAUC “++” refers to an observed NAUC 170-140% of positive control) | ++ (NAUC “++” refers to an observed NAUC 170-140% of positive control) |
| C[C@]1(O)CC2C3C(=O)N(c4cc(Cl)cc(Cl)c4)C(=O)C3C3(C(=O)Nc4c(Cl)cc(Cl)cc43)N2C1 (some centres unmarked) [Example 156] | ++ (NAUC “++” refers to an observed NAUC 170-140% of positive control) | +++ (NAUC “+++” refers to an observed NAUC >170% of positive control) |
| O=C1C2C3CC(C(F)(F)F)CN3C3(C(=O)Nc4c(Cl)cc(Cl)cc43)C2C(=O)N1c1cc(Cl)cc(Cl)c1 (centres unmarked) [Example 215] | +++ (NAUC “+++” refers to an observed NAUC >170% of positive control) | ++ (NAUC “++” refers to an observed NAUC 170-140% of positive control) |
| O=C1C2C(Cc3c(Cl)cccc3Cl)NC3(C(=O)Nc4c(Cl)cc(Cl)cc43)C2C(=O)N1c1cc(Cl)cc(Cl)c1 (centres unmarked) [Example 228] | +++ (NAUC “+++” refers to an observed NAUC >170% of positive control) | ++ (NAUC “++” refers to an observed NAUC 170-140% of positive control) |
| O=C1C2C3CCCN3C3(C(=O)Nc4c(C(F)(F)F)cccc43)C2C(=O)N1c1cc(Cl)cc(Cl)c1 (centres unmarked) [Example 18] | ++ (NAUC “++” refers to an observed NAUC 170-140% of positive control) | + (NAUC “+” refers to an observed NAUC <140% of positive control) |
| COc1c(Cl)cc(N2C(=O)C3C4CC(=C(F)F)CN4C4(C(=O)Nc5c(Cl)cc(Cl)cc54)C3C2=O)cc1Cl (centres unmarked) [Example 121] | ++ (NAUC “++” refers to an observed NAUC 170-140% of positive control) | ++ (NAUC “++” refers to an observed NAUC 170-140% of positive control) |
| O=C1C2C3C[C@H](Cl)CN3C3(C(=O)Nc4c(Cl)cc(Cl)cc43)C2C(=O)N1c1cc(Cl)cc(Cl)c1 (single isomer, unassigned) [Example 87] | +++ (NAUC “+++” refers to an observed NAUC >170% of positive control) | +++ (NAUC “+++” refers to an observed NAUC >170% of positive control) |
| O=C1C2C(CO)NC3(C(=O)Nc4c(Cl)cc(Cl)cc43)C2C(=O)N1c1cc(Cl)cc(Cl)c1 (centres unmarked) [Example 165] | ++ (NAUC “++” refers to an observed NAUC 170-140% of positive control) | ++ (NAUC “++” refers to an observed NAUC 170-140% of positive control) |
| COc1cc(Cl)cc(N2C(=O)C3C4CC(C)(C)CN4C4(C(=O)Nc5c(Cl)cc(Cl)cc54)C3C2=O)c1 (centres unmarked) [Example 127] | ++ (NAUC “++” refers to an observed NAUC 170-140% of positive control) | + (NAUC “+” refers to an observed NAUC <140% of positive control) |
| CC12C(=O)N(c3cc(Cl)cc(Cl)c3)C(=O)C1C1(C(=O)Nc3c(Cl)cc(Cl)cc31)N1CCCC12 (centres unmarked) [Example 44] | ++ (NAUC “++” refers to an observed NAUC 170-140% of positive control) | + (NAUC “+” refers to an observed NAUC <140% of positive control) |
| O=C1C2C3CC(=C(F)F)CN3C3(C(=O)Nc4c(Cl)cc(Cl)cc43)C2C(=O)N1c1cc(F)cc(Cl)c1 (centres unmarked) [Example 124] | + (NAUC “+” refers to an observed NAUC <140% of positive control) | ++ (NAUC “++” refers to an observed NAUC 170-140% of positive control) |
| COc1cc(Cl)cc(N2C(=O)C3C4C[C@H](F)CN4C4(C(=O)Nc5c(Cl)cc(Cl)cc54)C3C2=O)c1 (single isomer, unassigned) [Example 110] | +++ (NAUC “+++” refers to an observed NAUC >170% of positive control) | +++ (NAUC “+++” refers to an observed NAUC >170% of positive control) |
| O=C1C2C3CC(C(F)F)CN3C3(C(=O)Nc4c(Cl)cc(Cl)cc43)C2C(=O)N1c1cc(Cl)cc(Cl)c1 (centres unmarked) [Example 99] | +++ (NAUC “+++” refers to an observed NAUC >170% of positive control) | +++ (NAUC “+++” refers to an observed NAUC >170% of positive control) |
| COc1c(Cl)cc(N2C(=O)C3C4CC(C)(C)CN4C4(C(=O)Nc5c(Cl)cc(Cl)cc54)C3C2=O)cc1Cl (single isomer, unassigned) [Example 4, 5,7-dichloro-2′-(3,5-dichloro-4-methoxyphenyl)-7′,7′-dimethyl-3a′,6′,7′,8′,8a′,8b′-hexahydro-1′H-spiro[indoline-3,4′-pyrrolo[3,4-a]pyrrolizine]-1′,2,3′(2′H)-trione] | +++ (NAUC “+++” refers to an observed NAUC >170% of positive control) | ++ (NAUC “++” refers to an observed NAUC 170-140% of positive control) |
